# Values of other authors in US20230028307A1, “TREATMENT OF NEUROLOGICAL DISORDERS WITH AVERMECTINS” (Equilibre BioPharmaceuticals BV, priority 2020, published 2023).
# Columns and labels:
# [1] = tested on: episodes of epileptic attack; settings: patients suffering from onchoceriasis treated with ivermectin
# [2] = humans, relatively large doses
substance,measurement,setting,value
ivermectin,episodes of epileptic attack,[1],reduced
same,side effects,[2],no significant side effects
